Assays:
Type in all cases: in vivo
Zea mays = test: Pre-emergence herbicidal test, ZEAMX; set-up: key to herbicidal effect (0-9 scale) ZEAMX / herbicidal rating ZEAMX: A rating 0 indicates growth as untreated control; a rating 9 indicates death; conditions: for herbicidal rating ZEAMX: PRE, 0-9 scale, 21 days after spraying
Matricaria inodora [1] = test: Pre-emergence herbicidal test, MATIN; set-up: key to herbicidal effect (0-9 scale) MATIN / herbicidal rating MATIN: A rating 0 indicates growth as untreated control; a rating 9 indicates death; conditions: for herbicidal rating MATIN: PRE, 0-9 scale, 21 days after spraying
Glycine max [2] = test: Post-emergence herbicidal test, GLXMA; set-up: key: A rating 0 indicates growth as untreated control; a rating 9 indicates death; conditions: 0-9 scale, 21 days after spraying
Outline: (§1)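 Herbicidal effect is recorded on a linear 0-9 scale, where 0 means growth like untreated control and 9 means death, with one unit approximating 10% more effect.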

Echinochloa crus-galli = test: Pre-emergence herbicidal test, ECHCG; set-up: key: A rating 0 indicates growth as untreated control; a rating 9 indicates death; conditions: 0-9 scale, 21 days after spraying
Matricaria inodora [3] = test: Post-emergence herbicidal test, MATIN; set-up: key to herbicidal effect (0-9 scale) MATIN / herbicidal rating MATIN: A rating 0 indicates growth as untreated control; a rating 9 indicates death; conditions: for herbicidal rating MATIN: POST, 0-9 scale, 21 days after spraying
Outline: as §1

Glycine max [4] = test: Pre-emergence herbicidal test, GLXMA; set-up: key to herbicidal effect (0-9 scale) GLXMA / herbicidal rating GLXMA: A rating 0 indicates growth as untreated control; a rating 9 indicates death; conditions: for herbicidal rating GLXMA: PRE, 0-9 scale, 21 days after spraying

Cn1c(C(F)(F)F)cc(=O)n(-n2ccc3c(Cl)cccc32)c1=O [Example 169, 3-(4-Chloro-indol-1-yl)-1-methyl-6-trifluoromethylpyrimidine-2,4-dione]
herbicidal rating ZEAMX (Zea mays; 12.5 g/ha): 0 | herbicidal rating ZEAMX (Zea mays; 25 g/ha): 1 | herbicidal rating ZEAMX (Zea mays; 100 g/ha): 3 | herbicidal rating ZEAMX (Zea mays; 400 g/ha): 7 | selectivity in maize (Zea mays; pre-emergence, 25 g/ha): Surprisingly good selectivity | herbicidal rating MATIN (Matricaria inodora [1]; 12.5 g/ha): 8 | herbicidal rating MATIN (Matricaria inodora [1]; 25 g/ha): 8 | herbicidal rating MATIN (Matricaria inodora [1]; 100 g/ha): 9 | herbicidal rating MATIN (Matricaria inodora [1]; 400 g/ha): 9 | control of Matricaria (Matricaria inodora [1]; pre-emergence, 25 g/ha): good control | herbicidal rating GLXMA (Glycine max [2]; 25 g/ha): 5 | herbicidal rating GLXMA (Glycine max [2]; 100 g/ha): 7 | herbicidal rating GLXMA (Glycine max [2]; 400 g/ha): 9 | herbicidal rating ECHCG (Echinochloa crus-galli; 12.5 g/ha): 4 | herbicidal rating ECHCG (Echinochloa crus-galli; 25 g/ha): 7 | herbicidal rating ECHCG (Echinochloa crus-galli; 100 g/ha): 9 | herbicidal rating ECHCG (Echinochloa crus-galli; 400 g/ha): 9 | herbicidal rating MATIN (Matricaria inodora [3]; 25 g/ha): 8 | herbicidal rating MATIN (Matricaria inodora [3]; 100 g/ha): 9 | herbicidal rating MATIN (Matricaria inodora [3]; 400 g/ha): 9 | control of Matricaria (Matricaria inodora [3]; post-emergence, 12.5 g/ha): excellent control | herbicidal rating GLXMA (Glycine max [4]; 12.5 g/ha): 0 | herbicidal rating GLXMA (Glycine max [4]; 25 g/ha): 0 | herbicidal rating GLXMA (Glycine max [4]; 100 g/ha): 3 | herbicidal rating GLXMA (Glycine max [4]; 400 g/ha): 5 | selectivity in soy beans (Glycine max [4]; pre-emergence, 25 g/ha): Surprisingly good selectivity
